From US6914045B2, “Glycopeptide antibiotics” (Wyeth Holdings Corporation, priority 2001, dated 2005)
In brackets after ≈: the same amount, converted by molar mass.

What was measured:
Assay in all cases: in vitro antibacterial evaluation, MIC by broth dilution
Type in all cases: cell-based
Enterococcus sp. = details: broth dilution, 18 hours at 35° C.
How it was run: (§1)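 Test organisms, which included recent clinical isolates resistant to methicillin, penicillin and/or vancomycin, were inoculated at 5×10^5 CFU/mL into Muller-Hinton II […] containing antibiotic at 64-0.06 μg/mL. Minimum inhibitory concentrations were then read as the lowest level inhibiting growth.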

Staphylococcus sp. = details: broth dilution, 18 hours at 35° C.
How it was run: as §1

Streptococcus sp. = details: broth dilution, 18 hours at 35° C.
How it was run: as §1

Escherichia coli = details: 18 hours at 35° C.

- MIC Enterococcus avium (GC 4558) (Enterococcus sp.): 4 µg/mL (≈ 2.83 µM)
- MIC Enterococcus faecalis (ATCC 29212) (Enterococcus sp.): 4 µg/mL (≈ 2.83 µM)
- MIC Enterococcus faecalis (GC 2242) (Enterococcus sp.): 4 µg/mL (≈ 2.83 µM)
- MIC Enterococcus faecalis (GC 2691) (Enterococcus sp.): 4 µg/mL (≈ 2.83 µM)
- MIC Enterococcus faecalis (GC 3059) (Enterococcus sp.): 4 µg/mL (≈ 2.83 µM)
- MIC Enterococcus faecalis (GC 4552) (Enterococcus sp.): 4 µg/mL (≈ 2.83 µM)
- MIC Enterococcus faecalis (GC 4553) (Enterococcus sp.): 4 µg/mL (≈ 2.83 µM)
- MIC Enterococcus faecalis (GC 4554) (Enterococcus sp.): 4 µg/mL (≈ 2.83 µM)
- MIC Enterococcus faecalis (GC 6189) (Enterococcus sp.): 4 µg/mL (≈ 2.83 µM)
- MIC Enterococcus faecium (GC 2243) (Enterococcus sp.): 4 µg/mL (≈ 2.83 µM)
- MIC Enterococcus faecium (GC 4556) (Enterococcus sp.): 4 µg/mL (≈ 2.83 µM)
- MIC Enterococcus faecium (GC 4557) (Enterococcus sp.): 4 µg/mL (≈ 2.83 µM)
- MIC Enterococcus faecalis (ATCC 29212) (Enterococcus sp.; inoculum 5×10^5 CFU/mL, strain ATCC 29212): 4 µg/mL (≈ 2.83 µM)
- MIC Enterococcus faecalis (GC 2242) (Enterococcus sp.; inoculum 5×10^5 CFU/mL, strain GC 2242): 4 µg/mL (≈ 2.83 µM)
- MIC Enterococcus faecium (GC 2243) (Enterococcus sp.; inoculum 5×10^5 CFU/mL, strain GC 2243): 4 µg/mL (≈ 2.83 µM)
- MIC Enterococcus faecalis (GC 2691) (Enterococcus sp.; inoculum 5×10^5 CFU/mL, strain GC 2691): 4 µg/mL (≈ 2.83 µM)
- MIC Enterococcus faecalis (GC 3059) (Enterococcus sp.; inoculum 5×10^5 CFU/mL, strain GC 3059): 4 µg/mL (≈ 2.83 µM)
- MIC Enterococcus faecalis (GC 4552) (Enterococcus sp.; inoculum 5×10^5 CFU/mL, strain GC 4552): 4 µg/mL (≈ 2.83 µM)
- MIC Enterococcus faecalis (GC 4553) (Enterococcus sp.; inoculum 5×10^5 CFU/mL, strain GC 4553): 4 µg/mL (≈ 2.83 µM)
- MIC Enterococcus faecalis (GC 4554) (Enterococcus sp.; inoculum 5×10^5 CFU/mL, strain GC 4554): 4 µg/mL (≈ 2.83 µM)
- MIC Enterococcus faecium (GC 4556) (Enterococcus sp.; inoculum 5×10^5 CFU/mL, strain GC 4556): 4 µg/mL (≈ 2.83 µM)
- MIC Enterococcus faecium (GC 4557) (Enterococcus sp.; inoculum 5×10^5 CFU/mL, strain GC 4557): 4 µg/mL (≈ 2.83 µM)
- MIC Enterococcus avium (GC 4558) (Enterococcus sp.; inoculum 5×10^5 CFU/mL, strain GC 4558): 4 µg/mL (≈ 2.83 µM)
- MIC Enterococcus faecalis (GC 6189) (Enterococcus sp.; inoculum 5×10^5 CFU/mL, strain GC 6189): 4 µg/mL (≈ 2.83 µM)
- MIC Staphylococcus aureus (ATCC 29213) (Staphylococcus sp.; strain ATCC 29213): 2 µg/mL (≈ 1.41 µM)
- MIC Staphylococcus aureus (GC 1131) (Staphylococcus sp.; strain GC 1131): 2 µg/mL (≈ 1.41 µM)
- MIC Staphylococcus aureus (GC 3051) (Staphylococcus sp.; strain GC 3051): 2 µg/mL (≈ 1.41 µM)
- MIC Staphylococcus aureus (GC 3053) (Staphylococcus sp.; strain GC 3053): 2 µg/mL (≈ 1.41 µM)
- MIC Staphylococcus aureus (GC 4541) (Staphylococcus sp.; strain GC 4541): 1 µg/mL (≈ 0.707 µM)
- MIC Staphylococcus aureus (GC 4542) (Staphylococcus sp.; strain GC 4542): 1 µg/mL (≈ 0.707 µM)
- MIC Staphylococcus aureus-SMITH (GC 4543) (Staphylococcus sp.; strain GC 4543): 2 µg/mL (≈ 1.41 µM)
- MIC Staphylococcus aureus (GC 4544) (Staphylococcus sp.; strain GC 4544): 2 µg/mL (≈ 1.41 µM)
- MIC Staphylococcus aureus (GC 4545) (Staphylococcus sp.; strain GC 4545): 1 µg/mL (≈ 0.707 µM)
- MIC Coagulase Negative Staphylococcus (GC 4547) (Staphylococcus sp.; strain GC 4547): 2 µg/mL (≈ 1.41 µM)
- MIC Coagulase Negative Staphylococcus (GC 4548) (Staphylococcus sp.; strain GC 4548): 1 µg/mL (≈ 0.707 µM)
- MIC Coagulase Negative Staphylococcus (GC 4549) (Staphylococcus sp.; strain GC 4549): 1 µg/mL (≈ 0.707 µM)
- MIC Coagulase Negative Staphylococcus (GC 4551) (Staphylococcus sp.; strain GC 4551): 2 µg/mL (≈ 1.41 µM)
- MIC Coagulase Negative Staphylococcus (GC 6257) (Staphylococcus sp.; strain GC 6257): 1 µg/mL (≈ 0.707 µM)
- MIC Streptococcus agalactiae (GC 4564) (Streptococcus sp.): 0.5 µg/mL (≈ 0.353 µM)
- MIC Streptococcus pneumoniae (ATCC 6301) (Streptococcus sp.): 0.25 µg/mL (≈ 0.177 µM)
- MIC Streptococcus pneumoniae (GC 1894) (Streptococcus sp.): <0.06 µg/mL
- MIC Streptococcus pneumoniae (GC 4565) (Streptococcus sp.): 0.25 µg/mL (≈ 0.177 µM)
- MIC Streptococcus pyogenes (GC 4563) (Streptococcus sp.): 0.5 µg/mL (≈ 0.353 µM)
- MIC Streptococcus pneumoniae (ATCC 6301) (Streptococcus sp.; inoculum 5×10^5 CFU/mL, strain ATCC 6301): 0.25 µg/mL (≈ 0.177 µM)
- MIC Streptococcus pneumoniae (GC 1894) (Streptococcus sp.; inoculum 5×10^5 CFU/mL, strain GC 1894): <0.06 µg/mL
- MIC Streptococcus pyogenes (GC 4563) (Streptococcus sp.; inoculum 5×10^5 CFU/mL, strain GC 4563): 0.5 µg/mL (≈ 0.353 µM)
- MIC Streptococcus agalactiae (GC 4564) (Streptococcus sp.; inoculum 5×10^5 CFU/mL, strain GC 4564): 0.5 µg/mL (≈ 0.353 µM)
- MIC Streptococcus pneumoniae (GC 4565) (Streptococcus sp.; inoculum 5×10^5 CFU/mL, strain GC 4565): 0.25 µg/mL (≈ 0.177 µM)
- MIC Escherichia coli (ATCC 25922) (Escherichia coli): 32 µg/mL (≈ 22.6 µM)
- MIC Escherichia coli (GC 4559) (Escherichia coli): 16 µg/mL (≈ 11.3 µM)
- MIC Escherichia coli (GC 4560) (Escherichia coli): 2 µg/mL (≈ 1.41 µM)
Structure (SMILES): CC(c1ccccc1)C1NC(=O)CNC(=O)C(CO)NC(=O)C(C(O)C2CNC(=N)N2C2OC(CO)C(O)C(O)C2O)NC(=O)C(C(O)C2CNC(=N)N2)NC(=O)C(Cc2ccc(OC3OC(CO)C(OC4OC5COC(C)(c6ccc(F)cc6)OC5C(O)C4O)C(O)C3O)cc2)NC1=O (stereo not shown) [Example 216]
- MIC Staphylococcus haemolyticus (GC 4546) (Staphylococcus sp.; strain GC 4546): 1 µg/mL (≈ 0.707 µM)
